In paper PMC6925144, “A prospective compound screening contest identified broader inhibitors for Sirtuin 1” (Scientific Reports, 2019):
Read-outs that look alike come from different tables or passages of the source. Ends that are not written are not given here.

Experiments:
human SIRT1 [1] = target: T1, human SIRT1 (Homo sapiens, UniProt Q96EB6); assay: Thermal shift assay (TSA) of Sirtuin 1 without NAD+; format: binding; set-up: TSA(without NAD+) Primary screening (TSA) TmD (K): unit not given here; conditions: for TSA(without NAD+) Primary screening (TSA) TmD (K) / ΔTm at 10 µM: 10 µM, n = 1; for ΔTm at 10 µM: read-out: TSA(without NAD+) Primary screening (TSA) delta Tm (K); for thermal shift in SIRT1 melting curves, separate additions: separate additions of H3K9 (120 µM) or NAD+ (500 µM)
T1 construct: host or cells: Escherichia coli M15
T1 sequence (Q96EB6 with tags, fused parts or gaps): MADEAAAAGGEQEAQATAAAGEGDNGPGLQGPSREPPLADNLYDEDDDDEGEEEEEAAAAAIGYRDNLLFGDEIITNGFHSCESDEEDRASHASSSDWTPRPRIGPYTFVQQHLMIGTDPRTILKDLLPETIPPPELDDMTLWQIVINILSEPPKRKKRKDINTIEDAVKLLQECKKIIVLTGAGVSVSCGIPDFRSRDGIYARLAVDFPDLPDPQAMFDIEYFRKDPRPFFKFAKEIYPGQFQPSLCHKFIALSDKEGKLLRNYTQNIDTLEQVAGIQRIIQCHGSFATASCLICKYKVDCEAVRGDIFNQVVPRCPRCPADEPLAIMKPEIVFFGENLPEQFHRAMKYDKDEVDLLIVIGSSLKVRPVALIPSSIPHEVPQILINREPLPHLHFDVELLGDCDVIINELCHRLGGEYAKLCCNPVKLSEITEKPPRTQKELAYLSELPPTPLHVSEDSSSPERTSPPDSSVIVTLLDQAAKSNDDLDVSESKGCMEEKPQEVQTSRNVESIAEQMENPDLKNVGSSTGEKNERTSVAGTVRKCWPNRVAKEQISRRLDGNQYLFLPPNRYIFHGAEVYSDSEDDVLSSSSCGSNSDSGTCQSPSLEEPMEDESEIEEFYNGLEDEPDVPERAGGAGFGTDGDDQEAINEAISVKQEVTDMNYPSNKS
Experimental: (§1) A total of 3,192 compounds extracted from the proposed lists were first screened by thermal shift assay (TSA), which determined a melting temperature shift (ΔTm) of Sirtuin 1 upon the addition of a test compound at a concentration of 10 µM (n = 1) with primary hit criteria of ΔTm > 0.45 K or ΔTm < −1.5 K. Primary hits (48 compounds) were retested in the same assay at three concentrations (5, 10, 20 µM, n = 4) for hit confirmation and for dose-dependency check. Secondary hits (41 compounds) were checked their selectivity for Sirtuin 1 based on counterscreening on unrelated protein targets (bovine carbonic anhydrase (CA) and recombinant SH2 domain of hABL1 kinase (ABL1)) at three different concentrations (5, 10, 20 µM, n = 4), which yielded 38 hit compounds, hereafter referred to as TSA hits. The TSA screening above was conducted in the absence of NAD^+. As noted, the structure of Sirtuin 1 is different in the presence of NAD^+ and substrate. The chemical profile of TSA hits found from the different conditions could be different. […] As a result, 39 TSA hits were found. Regardless of the presence of NAD^+, 29 compounds were shared in both TSA hits.
B. Setup and validation of Protein Thermal Shift Assay.
All tested compounds were obtained from the screening compound collection of Enamine Ltd.
(Kiev, Ukraine). Stock solutions of the tested compounds were prepared at 10 mM in 100% DMSO and were stored at −20 °C until use. All thermal shift assay (TSA) experiments with SIRT1 protein were performed using ViiA™7 real-time PCR System equipped with 384-well heat block (Applied Biosystems, USA). General TSA methodology was adopted from the literature3-5 and experimentally modified in order to optimize conditions for measuring SIRT1 melting temperature shifts upon interaction with small molecules. To define the optimal buffer composition for the TSA procedure, a matrix of common buffers combined on a 96-well plate (Figure S3) was tested in thermal melt experiment on a 384-well plate (each buffer composition in quadruplicate). In addition, each buffer composition shown on Figure S3 was tested at two different buffering component concentrations, as listed in Table S1, resulting in two 384-well plate buffer screening experiments and the total of 192 different buffer compositions tested.
Figure S3. Matrix plate of the buffer compositions assessed for TSA optimization.
(1 picture or pasted object on this page, not shown here)
(§2) Table S1. Buffer concentrations used for preparing buffer composition matrix screening plates.
(§3) Buffer Plate 1 (mM) Plate 2 (mM)
(§4) Selection of the optimal buffer composition was based on balancing several criteria including undistorted protein melting curve, maximized melting temperature stability of SIRT1 protein and maximized melting temperature shift induced by the acetylated histone H3K9 peptide (KQTARK(Ac)STGG, a natural substrate of SIRT1). Thermal shift experiments were done at 120 µM H3K9 in the presence of 500 µM NAD+, a co-factor of SIRT1. Separate additions of H3K9 or […]
result, the buffer consisting of 20 mM Tris-HCl pH 8 and 50 mM NaCl was selected for the screening. Purified SIRT1 protein was pre-mixed with SYPRO Orange dye (Thermo Fischer Scientific, Cat. S6650, 5000x stock) to prepare a master mix at 400 µg/mL protein and 10x dye concentration. Tested compounds were added to the protein-dye master mix at 10 µM (1% final DMSO concentration) and incubated for 1 h at 4 °C in MicroAmp® optical 384-well reaction plates (ThermoFisher, Cat. 4309849) sealed with optical sealing film (ThermalSeal RT2, Excel Scientific, Cat. TS-RT2). The volumes of all reaction mixtures were 10 µL (4 µg SIRT1 per well). The reaction plates were then kept at ambient temperature (22-24 °C) for additional 15 minutes to ensure protein-compound interactions. Thermal scanning was performed by raising temperature to 35 °C at 1.6 °C/min without signal detection followed by 35 °C to 75 °C temperature ramp at 0.05 °C/s with […]

human SIRT1 [2] = target: T1, human SIRT1; assay: SIRT-Glo luminogenic enzymatic inhibitory assay (inhibition rate and IC50); format: biochemical; conditions: n = 4, read-out: IC50
Experimental: Note that the inhibitory assay was conducted with NAD^+.
Biochemical enzymatic assay for SIRT1
Luminogenic SIRT-Glo™ assay kit was purchased from Promega Corp. (Madison, WI; USA,
Enzymatic activity of SIRT1 in the presence of test compounds
the SIRT-Glo™ assay according to the manufacturer’s instructions (Promega Technical Manual for
SIRT-Glo™ Assay and Screening System). Briefly, the enzymatic reactions were performed in assay
SIRT1 was added to 3 ng/µL concentration to the wells containing tested compounds diluted in the
DMSO concentration) and the reactions (9 µL per well) were pre-incubated for 30 min at ambient
The enzymatic reactions were started by adding 9 µL of SIRT-Glo™
reagent (proprietary composition undisclosed by the vendor) to each assay well.
vigorous mixing using VibraTranslator (Union Scientific, USA) to ensure homogeneity, the plate
was incubated at the ambient temperature for 40 min. The final reaction volumes per well of a
384-well plate were 18 µL (1.5 ng/µL SIRT1: 20 nM). Luminescence signals were measured using
Omega PolarStar microplate reader (BMG Labtech, Ortenberg, Germany). Luminescence values
from the control plate wells with no added enzyme were used as a baseline.
The eight-point IC50 curve was built using 3x serial dilution
Primary compound dilutions were performed
in DMSO and each concentration was tested in quadruplicate. Assay data was analyzed in GraphPad
Prism,6 using Prism's built-in sigmoidal dose-response curve-fit algorithm and default settings of the
fit. Each error bar represents a standard deviation (SD) of inhibition rates for each concentration.
Dose-response curve (DRC) for SIRT1 inhibition by 20 compounds under SIRT-Glo™
assay conditions described in Section C of this supporting information. The determined IC50 value
The eight-point IC50 curves were built using 3x serial
dilution starting from compound concentration of 100 μM. Primary compound dilutions were
performed in DMSO and each concentration was tested in quadruplicate. Assay data was analyzed in
GraphPad Prism,6 using Prism's built-in sigmoidal dose-response curve-fit algorithm and default
Each bar represents a standard deviation (SD) of inhibition rates for each concentration.

human SIRT1 [3] = target: T1, human SIRT1; assay: Thermal shift assay (TSA) of Sirtuin 1 in the presence of NAD+; format: binding; conditions: for ΔTm at 10 µM: n = 1, read-out: TSA(with NAD+) Primary screening (TSA) delta Tm (K)
Experimental: as §1, §2, §3, §4
result, the buffer consisting of 20 mM Tris-HCl pH 8 and 50 mM NaCl was selected for the screening. Purified SIRT1 protein was pre-mixed with SYPRO Orange dye (Thermo Fischer Scientific, Cat. S6650, 5000x stock) to prepare a master mix at 400 µg/mL protein and 10x dye concentration. Tested compounds were added to the protein-dye master mix at 10 µM (1% final DMSO concentration) and incubated for 1 h at 4 °C in MicroAmp® optical 384-well reaction plates (ThermoFisher, Cat. 4309849) sealed with optical sealing film (ThermalSeal RT2, Excel Scientific, Cat. TS-RT2). The volumes of all reaction mixtures were 10 µL (4 µg SIRT1 per well). The reaction plates were then kept at ambient temperature (22-24 °C) for additional 15 minutes to ensure protein-compound interactions. Thermal scanning was performed by raising temperature to 35 °C at 1.6 °C/min without signal detection followed by 35 °C to 75 °C temperature ramp at 0.05 °C/s with constant fluorescence intensity reading at 1 sec intervals using EX470/EM623 nm filter set. Primary screening of the whole test set of 3,192 compounds was carried out in singletons. The raw data of dye fluorescence intensity change upon protein melt were exported using the ViiA7 RUO software (Applied Biosystems/ThermoFischer Scientific). Further data visualization, curve fitting, melting temperature calculations on the raw fluorescence data were performed using custom-made Microsoft Excel scripts developed by us. The peak of the first derivative for the fluorescence curve was used to define melting temperature (Tm). Averaged Tm values for the control wells (64 wells per plate), containing only the protein, dye and 1% DMSO were used as a reference point to determine melting temperature shifts (ΔTm). Hit selection criteria was ΔTm > 0.45 °C or ΔTm < −1.5 °C. All primary hits were re-tested in the same assay at 3 concentrations (20, 10 and 5 µM, n = 4) for hit confirmation

[4] = tested on: bovine carbonic anhydrase (CA); assay: TSA counterscreening on unrelated protein, carbonic anhydrase; format: binding; conditions: combined verdict on CA and Abl SH2; TSA flow with NAD+
Experimental: as §1

[5] = final Sirtuin 1 concentration 20 nM

| Compound | IC50 (human SIRT1 [2]; [5]) | TSA(without NAD+) Primary screening (TSA) TmD (K) (human SIRT1 [1]) | ΔTm at 10 µM (human SIRT1 [1]) | ΔTm at 10 µM (human SIRT1 [3]) | also measured |
| --- | --- | --- | --- | --- | --- |
| O=C1NC(=O)c2ccccc2/C1=C\NNC(=O)C12CC3CC(CC(C3)C1)C2 [Compound Z165047618] |  |  |  |  | ΔTm, additional TSA experiment (human SIRT1 [1]; without NAD+, n = 4): −0.03 K; IC50 (human SIRT1 [2]; final Sirtuin 1 concentration 30 nM (compounds marked *)): 13 µM |
| Cc1nc(-c2ccc(CCNC(=O)c3ccc(NC(=O)c4cccs4)cc3)s2)cs1 [Compound Z165049452] | 12 µM |  |  |  |  |
| NCc1nc2c(cnn2-c2ccccc2)c(=O)[nH]1 [Compound Z235344735] | 7.6 µM |  |  |  |  |
| Cc1ccc(C(=O)Nc2nc3ccc(NS(=O)(=O)c4ccc5c(c4)CCC(=O)N5)cc3s2)s1 [Compound Z605844126] | 15 µM |  |  |  |  |
| Cc1ccc(C(CNC(=O)c2ccc(C(N)=O)cc2)N2CCCC2)o1 (stereo not drawn) [Compound Z1001367730] |  | 49.64 | -0.08 °C | -0.11 °C |  |
| CC(Nc1ccc2nnnn2n1)c1ccc(Oc2ccccc2)cc1 (stereo not drawn) [Compound Z1002316132] |  | 49.54 | -0.05 °C | 0.09 °C |  |
| O=c1[nH]c2ccc(S(=O)(=O)NCc3cc4ccccc4[nH]3)cc2[nH]1 [Compound Z1003449802] |  | 49.54 | -0.07 °C | 0.68 °C | TSA(with NAD+) Counter Screening (Carbonic anhydrase AND Abl kinase SH2 domain) Good/Bad [4]: Bad |
| NC(=O)c1ccc[n+]([C@@H]2O[C@H](COP(=O)([O-])OP(=O)(O)OC[C@H]3O[C@@H](n4cnc5c(N)ncnc54)[C@H](O)[C@@H]3O)[C@@H](O)[C@H]2O)c1 [NAD+, nicotinamide adenine dinucleotide] |  |  |  |  | thermal shift in SIRT1 melting curves, separate additions (human SIRT1 [1]): did not cause any thermal shift |
| histone H3K9 peptide: acetylated histone H3K9 peptide (KQTARK(Ac)STGG, a natural substrate of SIRT1) (UniProt P68431 5-14, looked up, fragment) [reference compound] |  |  |  |  | thermal shift in SIRT1 melting curves, separate additions (human SIRT1 [1]): did not cause any thermal shift; Peptide induced thermal shift (human SIRT1 [3]; 120 µM H3K9 in the presence of 500 µM NAD+): +1.2 °C |
